According to article PMC9500072, “Topical application of an irreversible small molecule inhibitor of lysyl oxidases ameliorates skin scarring and fibrosis” (Nature Communications, 2022):
Where “and” joins values, the source holds several entries; their conditions need not be identical. Identical values can stand only once.

Assays:
Bovine (aorta) LOX = target: T1, Bovine (aorta) LOX (Bos taurus, UniProt P33072); assay: Amplex Red oxidation assay, LOX inhibition; assay type: biochemical; conditions: 30 min pre-incubation
T1 construct: Bovine (aorta) LOX used for analog screening due to ready availability; from tissue; host or cells: bovine aorta
T1 sequence (P33072 170-418): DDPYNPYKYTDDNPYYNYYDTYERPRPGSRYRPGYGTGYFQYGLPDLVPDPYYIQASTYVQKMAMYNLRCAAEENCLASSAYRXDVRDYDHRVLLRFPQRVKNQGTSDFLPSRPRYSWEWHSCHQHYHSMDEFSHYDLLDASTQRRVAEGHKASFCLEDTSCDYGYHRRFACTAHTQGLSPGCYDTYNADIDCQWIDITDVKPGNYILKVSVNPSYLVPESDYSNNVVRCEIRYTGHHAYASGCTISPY
Method: (§1) The measurement of the enzymatic activity of all lysyl oxidase family members was based on the detection of hydrogen peroxide with an Amplex-Red oxidation assay, as previously described; miniaturized in 384 well formats, with the appropriate combination of substrate and assay buffer for each individual enzyme. After a 30 min pre-incubation of the enzyme at 37 °C with the test compound (or with different incubation times for the time-dependency assay), one volume of reaction mixture containing 120 μM Amplex Red (AR) (Life Technologies), 1.5 U/mL horseradish peroxidase (HRP) (Sigma-Aldrich) and the specific substrate was added to each sample. The relative fluorescence units (RFU) were then measured every 2.5 min for 30 min at 37 °C, excitation 565 nm and emission 590, on a BMG Clariostar Microplate Reader. All the substrates were used at concentrations corresponding to their Km towards the corresponding enzyme, or with a range of different concentrations for the substrate competition experiments.
(§2) Lysyl oxidases assay buffer contained 1.2 M urea, 50 mM sodium borate buffer, pH 8.2 and 100 µM β-aminoproprionitrile (BAPN, Sigma-Aldrich) was used for low control.

Human recombinant LOXL2 = target: T2, Human recombinant LOXL2 (Homo sapiens, UniProt Q9Y4K0); assay: Amplex Red oxidation assay, LOXL2 inhibition; assay type: biochemical; conditions: 30 min pre-incubation; read-out: LOXL2 IC50
T2 construct: purchased R&D Systems
T2 sequence (Q9Y4K0 26-774): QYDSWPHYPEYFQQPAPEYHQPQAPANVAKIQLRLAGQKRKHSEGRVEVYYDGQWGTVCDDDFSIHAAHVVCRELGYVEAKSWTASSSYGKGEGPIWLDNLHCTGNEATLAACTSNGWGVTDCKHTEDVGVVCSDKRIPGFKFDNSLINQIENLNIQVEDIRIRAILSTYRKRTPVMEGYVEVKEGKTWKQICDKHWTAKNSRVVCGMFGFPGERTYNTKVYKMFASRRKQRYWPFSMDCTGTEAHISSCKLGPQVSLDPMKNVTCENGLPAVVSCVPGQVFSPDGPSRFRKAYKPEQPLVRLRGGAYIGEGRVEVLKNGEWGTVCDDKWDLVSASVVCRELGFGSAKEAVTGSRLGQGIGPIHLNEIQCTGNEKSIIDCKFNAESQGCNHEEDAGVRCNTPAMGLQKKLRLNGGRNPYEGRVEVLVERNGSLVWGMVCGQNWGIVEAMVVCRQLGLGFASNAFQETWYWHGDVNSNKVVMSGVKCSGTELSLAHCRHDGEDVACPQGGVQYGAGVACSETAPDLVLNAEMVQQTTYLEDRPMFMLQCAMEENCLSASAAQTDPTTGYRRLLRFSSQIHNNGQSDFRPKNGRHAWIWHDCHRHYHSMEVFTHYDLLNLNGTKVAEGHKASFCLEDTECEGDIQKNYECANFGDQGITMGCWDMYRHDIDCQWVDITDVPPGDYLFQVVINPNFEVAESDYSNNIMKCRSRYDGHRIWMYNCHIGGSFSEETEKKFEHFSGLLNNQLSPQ
Method: (§3) For compound oxidation assays, the amount of hydrogen peroxide generated at a single concentration (30 µM) of compound relative to DMSO was measured.
as §1, §2
Recombinant human LOXL1 was expressed and purified from cDNA (GeneArt) and 10 mM putrescine was used as substrate. Recombinant human and mouse LOXL2 (R&D Systems) were challenged with 5 mM putrescine (Sigma-Aldrich) as the substrate. Rat and dog recombinant LOXL2 were amplified and purified in house from HEK-293 clones kindly provided by Dr. Fernando Rodríguez Pascual, Madrid University, and used in the same conditions as for the human form. 2 mM putrescine was used as the substrate for recombinant human LOXL3 (R&D Systems) and LOXL4 (Dr. Fernando Rodríguez Pascual, university of Madrid, Spain) assays.

Human Recombinant SSAO = target: T3, Human Recombinant SSAO (Homo sapiens, UniProt Q16853); assay: Compound oxidation assay (substrate propensity) by SSAO; assay type: biochemical; conditions: single concentration 30 µM
T3 sequence (Q16853 1-763): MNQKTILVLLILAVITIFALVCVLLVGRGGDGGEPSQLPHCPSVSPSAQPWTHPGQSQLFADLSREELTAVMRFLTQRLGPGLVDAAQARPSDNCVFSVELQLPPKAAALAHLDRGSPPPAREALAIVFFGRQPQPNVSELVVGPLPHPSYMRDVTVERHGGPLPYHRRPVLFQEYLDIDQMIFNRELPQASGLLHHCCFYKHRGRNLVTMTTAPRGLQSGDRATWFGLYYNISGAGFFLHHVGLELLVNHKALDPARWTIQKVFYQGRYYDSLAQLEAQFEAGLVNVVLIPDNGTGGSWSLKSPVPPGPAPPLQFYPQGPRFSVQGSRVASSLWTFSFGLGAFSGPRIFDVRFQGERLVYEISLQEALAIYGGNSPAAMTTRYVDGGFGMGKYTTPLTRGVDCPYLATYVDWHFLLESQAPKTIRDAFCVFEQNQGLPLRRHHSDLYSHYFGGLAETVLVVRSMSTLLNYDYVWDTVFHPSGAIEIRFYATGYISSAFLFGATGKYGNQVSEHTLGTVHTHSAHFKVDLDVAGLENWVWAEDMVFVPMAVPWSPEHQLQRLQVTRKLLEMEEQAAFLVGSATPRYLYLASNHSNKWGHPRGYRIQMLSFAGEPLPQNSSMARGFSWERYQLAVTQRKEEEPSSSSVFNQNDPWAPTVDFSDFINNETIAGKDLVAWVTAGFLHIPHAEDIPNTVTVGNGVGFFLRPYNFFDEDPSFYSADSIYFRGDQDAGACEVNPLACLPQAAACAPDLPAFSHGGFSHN
Method: as §3
Data are expressed as mean ± SEM. Subsequent statistical analysis was performed with unpaired two-sided Student’s t tests. *p < 0.05, **p < 0.01, ***p < 0.001and ****p < 0.0001. Source data are provided as a Source Data file.
This assay determines the substrate propensity of a compound relative to background (dimethyl sulfoxide only). Compound oxidation by rhSSAO was measured by fluorometric assay. Briefly, rhSSAO was incubated for 2 h at 37 °C in HEPES buffer before the addition of an equal volume of Amplex Red ([…]), horseradish peroxidase (4 U/ml), and test compound in the same buffer. The kinetics of the formation of resorufin was measured immediately using Optima reader (BMG Labtech GmbH, Ortenburg, Germany), at 37 °C.

chicken lysyl oxidase = system: chicken lysyl oxidase; parameters: method as in earlier work; conditions: cited from earlier work
[1] = Franz Cell skin permeability assay; assay type: in vitro ADME, human; conditions: average of 3 samples

Row | IC50 (Bovine (aorta) LOX) | IC50 (Human recombinant LOXL2) [µM] | Oxidation by SSAO (hydrogen peroxide generated relative to DMSO) (Human Recombinant SSAO) | SMILES | other results
1 | > 30 µM | 8.7 | 1.1 | NC/C(=C\F)COc1ccccc1 [compound 2] | –
2 | 10.8 µM | 0.9 | 2.6 | NC/C=C(\F)CN1CCc2ccccc21 [compound 5] | –
3 | 8.5 µM | 1.1 | 68 | NC/C=C(\F)CSc1ccccc1 [compound 7] | –
4 | 13.6 µM | 3.4 | 5.5 | NC/C=C(\F)CNc1ccccc1 [compound 6] | –
5 | 8.4 µM and 8 µM | 1.1 | – | NC/C=C(\F)COc1ccccc1 [compound 4] | –
6 | > 30 µM | 9.5 | 1.1 | NCC(=CF)COc1ccccc1 [compound 1] | –
7 | – | – | – | NC/C=C(\F)C(F)(F)S(=O)(=O)c1ccccc1 [Samples 6302] | Avg. 6302 concentration ([1]; 0hr): 0 µM; Avg.6302 concentration ([1]; 0hr): 0.000 ng/mL; Avg. 6302 concentration ([1]; 2hr): 0.017 µM; Avg.6302 concentration ([1]; 2hr): 4.559 ng/mL; Avg. 6302 concentration ([1]; 4hr): 0.042 µM; Avg.6302 concentration ([1]; 4hr): 11.109 ng/mL; Avg. 6302 concentration ([1]; 6hr): 0.166 µM; Avg.6302 concentration ([1]; 6hr): 44.135 ng/mL; Avg. 6302 concentration ([1]; 20hr): 1.742 µM; Avg.6302 concentration ([1]; 20hr): 462.127 ng/mL

Row | SMILES | IC50 (Bovine (aorta) LOX) | IC50 (Human recombinant LOXL2) [µM] | Oxidation by SSAO (hydrogen peroxide generated relative to DMSO) (Human Recombinant SSAO) | other results
8 | NC/C=C(/F)COc1ccccc1 [compound 3] | 13.5 µM | 2.9 | 12.0 | –
9 | NC/C(=C/F)CCc1ccc(F)cc1 [Mofegiline, mofegiline, reference compound] | 56 µM | > 10 | 1.0 | inhibition of chicken lysyl oxidase activity (chicken lysyl oxidase): modest inhibitor
